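Values below derive from 48-hour exposures of cells grown in 96-well plates, with endpoints linearly interpolated between the two concentrations bracketing the appropriate inhibition level. Here, GI50 denotes the concentration required for 50% inhibition of growth.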 Active and inactive are the calls of the source. Rule as the data show it: active = GI50 up to about 1.1 µM and inactive = higher.
Tests used:
Assay in all cases: inhibition of tumour cell growth, NCI panel, 48 h
DMS-114 = test system: DMS-114
LXFL 529 = test system: LXFL 529
786-0 = test system: 786-0
MOLT-4 = test system: MOLT-4
Malme-3M = test system: Malme-3M
DMS-273 = test system: DMS-273
HCT-116 = test system: HCT-116
NCI-H226 = test system: NCI-H226
U-251 = test system: U-251
HCT-15 = test system: HCT-15
SNB-78 = test system: SNB-78
M19-MEL = test system: M19-MEL
UO-31 = test system: UO-31
SF-539 = test system: SF-539
LOX IMVI = test system: LOX IMVI
OVCAR-3 = test system: OVCAR-3
IGROV-1 = test system: IGROV-1
UACC-62 = test system: UACC-62
RXF 393 = test system: RXF 393
M14 = test system: M14
EKVX = test system: EKVX
COLO 205 = test system: COLO 205
SW-620 = test system: SW-620
HOP-18 = test system: HOP-18
K562 = test system: K562
SK-MEL-2 = test system: SK-MEL-2
SF-295 = test system: SF-295
UACC-257 = test system: UACC-257
HCC 2998 = test system: HCC 2998
HT-29 = test system: HT-29
RPMI-8226 = test system: RPMI-8226
KM12 = test system: KM12
SK-MEL-28 = test system: SK-MEL-28
A498 = test system: A498
SK-MEL-5 = test system: SK-MEL-5
OVCAR-4 = test system: OVCAR-4
NCI-H23 = test system: NCI-H23
A549 = test system: A549
HOP-92 = test system: HOP-92
SN12C = test system: SN12C
SF-268 = test system: SF-268
DLD-1 = test system: DLD-1
ACHN = test system: ACHN
SK-OV-3 = test system: SK-OV-3
CAKI-1 = test system: CAKI-1
HL-60 = test system: HL-60
OVCAR-5 = test system: OVCAR-5
NCI-H522 = test system: NCI-H522
OVCAR-8 = test system: OVCAR-8
NCI-H460 = test system: NCI-H460
CCRF-CEM = test system: CCRF-CEM
SNB-75 = test system: SNB-75
KM-20L2 = test system: KM-20L2
SNB-19 = test system: SNB-19
HOP-62 = test system: HOP-62
TK-10 = test system: TK-10

Measured: GI50

COC(=O)C1=C(O)C(O)=C(C(=O)OC)C1
> 100 µM: HCT-15
inactive: DMS-114 > 100 µM | LXFL 529 > 100 µM | 786-0 > 100 µM | MOLT-4 > 100 µM | Malme-3M > 100 µM | DMS-273 > 100 µM | HCT-116 > 100 µM | NCI-H226 > 100 µM | U-251 > 100 µM | SNB-78 > 100 µM | M19-MEL > 100 µM | UO-31 > 100 µM | SF-539 > 100 µM | LOX IMVI > 100 µM | OVCAR-3 > 100 µM | IGROV-1 > 100 µM | RXF 393 > 100 µM | M14 > 100 µM | EKVX > 100 µM | COLO 205 > 100 µM | SW-620 > 100 µM | HOP-18 > 100 µM | K562 > 100 µM | SK-MEL-2 > 100 µM | SF-295 > 100 µM | UACC-257 > 100 µM | HCC 2998 > 100 µM | HT-29 > 100 µM | RPMI-8226 > 100 µM | KM12 > 100 µM | SK-MEL-28 > 100 µM | A498 > 100 µM | SK-MEL-5 > 100 µM | OVCAR-4 > 100 µM | NCI-H23 > 100 µM | A549 > 100 µM | HOP-92 > 100 µM | SN12C > 100 µM | SF-268 > 100 µM | DLD-1 > 100 µM | ACHN > 100 µM | SK-OV-3 > 100 µM | CAKI-1 > 100 µM | HL-60 > 100 µM | OVCAR-5 > 100 µM | NCI-H522 > 100 µM | OVCAR-8 > 100 µM | NCI-H460 > 100 µM | CCRF-CEM > 100 µM | SNB-75 > 100 µM | KM-20L2 > 100 µM | SNB-19 > 100 µM | HOP-62 > 100 µM | TK-10 > 100 µM
active: UACC-62 0.612 µM
